# Source: PubChem BioAssay AID248 (DTP/NCI, 2004)
# Values joined by “and” are separate entries in the source; they are usually repeats but may differ in a detail not shown here. Equal values may be shown once. Inconclusive results and toxic doses are left out.
# System: L1210 leukemia ip in BDF1 mice, survival T/C
# Assay: NCI In Vivo Anticancer Drug Screen. Data for tumor model L1210 Leukemia (intraperitoneal) in B6D2F1 (BDF1) mice
# Details: endpoint: mean survival time, higher = longer survival
# Summary of the method: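 In this screen, tumor-bearing mice given compound are compared to those given vehicle, and their survival values are reported as a treated-to-control quotient.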
# [1] = dose: 50.0 mg/kg/injection, schedule: Q01DX009 (ip), vehicle: saline with Tween-80
# [2] = dose: 100.0 mg/kg/injection, schedule: Q01DX009 (ip), vehicle: saline with Tween-80
# [3] = dose: 200.0 mg/kg/injection, schedule: Q01DX009 (ip), vehicle: saline with Tween-80
# [4] = dose: 100.0 mg/kg/injection, schedule: Q01DX009 (ip), vehicle: Klucel (hydroxypropylcellulose) (HPC)
# [5] = dose: 200.0 mg/kg/injection, schedule: Q01DX009 (ip), vehicle: Klucel (hydroxypropylcellulose) (HPC)
# [6] = dose: 400.0 mg/kg/injection, schedule: Q01DX009 (ip), vehicle: Klucel (hydroxypropylcellulose) (HPC)
# [7] = dose: 100.0 mg/kg/injection, schedule: Q04DX003 (ip), vehicle: saline with Tween-80
# [8] = dose: 200.0 mg/kg/injection, schedule: Q04DX003 (ip), vehicle: saline with Tween-80
# [9] = dose: 100.0 mg/kg/injection, schedule: Q04DX003 (ip), vehicle: Klucel (hydroxypropylcellulose) (HPC)
# [10] = dose: 200.0 mg/kg/injection, schedule: Q04DX003 (ip), vehicle: Klucel (hydroxypropylcellulose) (HPC)
# [11] = dose: 400.0 mg/kg/injection, schedule: Q04DX003 (ip), vehicle: Klucel (hydroxypropylcellulose) (HPC)
compound,measurement,setting,value
COc1cc(C=Nc2cccc(F)c2)ccc1N(CCCl)CCCl,T/C,"dose: 2.5 mg/kg/injection, schedule: Q01DX009 (ip), vehicle: carboxymethylcellulose (CMC)",96 % of control
same,T/C,"dose: 5.0 mg/kg/injection, schedule: Q01DX009 (ip), vehicle: carboxymethylcellulose (CMC)",104 % of control
same,T/C,"dose: 10.0 mg/kg/injection, schedule: Q01DX009 (ip), vehicle: acetone",118 % of control
same,T/C,"dose: 10.0 mg/kg/injection, schedule: Q01DX009 (ip), vehicle: carboxymethylcellulose (CMC)",108 % of control
same,T/C,"dose: 45.0 mg/kg/injection, schedule: Q01DX001 (ip), vehicle: saline",110 % of control
same,T/C,"dose: 50.0 mg/kg/injection, schedule: Q01DX001 (ip), vehicle: carboxymethylcellulose (CMC)",101 % of control
same,T/C,"dose: 67.0 mg/kg/injection, schedule: Q01DX001 (ip), vehicle: saline",115 % of control
same,T/C,"dose: 100.0 mg/kg/injection, schedule: Q01DX001 (ip), vehicle: carboxymethylcellulose (CMC)",98 % of control
same,T/C,"dose: 200.0 mg/kg/injection, schedule: Q01DX001 (ip), vehicle: carboxymethylcellulose (CMC)",103 % of control
same,T/C,"dose: 200.0 mg/kg/injection, schedule: Q01DX001 (ip), vehicle: saline",152 % of control
O=S(=O)(c1ccc(N=Nc2ncc[nH]2)cc1)N(CCCl)CCCl,T/C,[1],90 % of control
same,T/C,[2],94 % of control
same,T/C,[3],90 % of control
Oc1ccc(C=NCCN=Cc2ccc(O)cc2)cc1,T/C,"dose: 100.0 mg/kg/injection, schedule: Q01DX001 (ip), vehicle: other",103 % of control
same,T/C,"dose: 200.0 mg/kg/injection, schedule: Q01DX001 (ip), vehicle: other",103 % of control
same,T/C,"dose: 400.0 mg/kg/injection, schedule: Q01DX001 (ip), vehicle: other",103 % of control
CCOC(=O)C1CCC1C(=O)OCC (stereo not given),T/C,"dose: 50.0 mg/kg/injection, schedule: Q01DX009 (ip), vehicle: saline",95 % of control
same,T/C,"dose: 100.0 mg/kg/injection, schedule: Q01DX009 (ip), vehicle: saline",95 % of control
same,T/C,"dose: 100.0 mg/kg/injection, schedule: Q04DX003 (ip), vehicle: saline",96 % of control
same,T/C,"dose: 200.0 mg/kg/injection, schedule: Q01DX009 (ip), vehicle: saline",94 % of control
same,T/C,"dose: 200.0 mg/kg/injection, schedule: Q04DX003 (ip), vehicle: saline",102 % of control
same,T/C,"dose: 400.0 mg/kg/injection, schedule: Q04DX003 (ip), vehicle: saline",102 % of control
O=C(Nc1ccc2c(c1)C(=O)c1ccccc1C2=O)Nc1cc(C(F)(F)F)ccc1Cl,T/C,[4],103 % of control
same,T/C,[5],97 % of control
same,T/C,[6],88 % of control
O=C1c2ccccc2C(=O)N1CCc1ccccn1,T/C,[1],101 % of control
same,T/C,[2],95 % of control
same,T/C,[7],102 % of control
same,T/C,[3],93 % of control
same,T/C,[8],101 % of control
Cc1cc([N+](=O)[O-])c(C)cc1Cl,T/C,"dose: 100.0 mg/kg/injection, schedule: Q01DX009 (ip), vehicle: saline sonified",98 % of control
same,T/C,[9],98 % of control
same,T/C,"dose: 200.0 mg/kg/injection, schedule: Q01DX009 (ip), vehicle: saline sonified",100 % of control
same,T/C,[10],98 % of control
same,T/C,"dose: 400.0 mg/kg/injection, schedule: Q01DX009 (ip), vehicle: saline sonified",100 % of control
same,T/C,[11],98 % of control
Cc1ccc(NC(=O)Oc2ccccc2F)cc1NC(=O)Oc1ccccc1F,T/C,"dose: 100.0 mg/kg/injection, schedule: Q01DX009 (ip), vehicle: other",102 % of control
same,T/C,"dose: 200.0 mg/kg/injection, schedule: Q01DX009 (ip), vehicle: other",90 % of control
same,T/C,"dose: 400.0 mg/kg/injection, schedule: Q01DX009 (ip), vehicle: other",94 % of control
COc1ccc(Cl)cc1NC(=O)OCCCc1ccccc1,T/C,"dose: 100.0 mg/kg/injection, schedule: Q01DX009 (ip), vehicle: gum acacia",108 % of control
same,T/C,"dose: 200.0 mg/kg/injection, schedule: Q01DX009 (ip), vehicle: gum acacia",98 % of control
same,T/C,"dose: 400.0 mg/kg/injection, schedule: Q01DX009 (ip), vehicle: gum acacia",109 % of control
Cc1nc(N)[nH]c(=O)c1CCCCc1ccccc1,T/C,"dose: 50.0 mg/kg/injection, schedule: Q01DX009 (ip), vehicle: Klucel (hydroxypropylcellulose) (HPC)",98 % of control
same,T/C,[4],102 % of control
same,T/C,[5],95 % of control
S=c1ncn(C2CCCCC2)c(=S)[nH]1,T/C,[9],95 % of control
same,T/C,[11],102 % of control
CNC(=O)Oc1cc2c(cc1C)C(C)(C)CCC2(C)C,T/C,[4],96 % of control
same,T/C,[5],96 % of control
same,T/C,[6],91 % of control
c1ccc2c(c1)Cc1ccccc1C2,T/C,"dose: 100.0 mg/kg/injection, schedule: Q04DX002 (ip), vehicle: other",110 % of control
same,T/C,"dose: 200.0 mg/kg/injection, schedule: Q04DX002 (ip), vehicle: other",94 % of control
same,T/C,"dose: 400.0 mg/kg/injection, schedule: Q04DX002 (ip), vehicle: other",113 % of control
CCOC(=O)C1(c2cc(NS(=O)(=O)c3ccccc3)ccc2O)CCCCC1=O (stereo not given),T/C,"dose: 50.0 mg/kg/injection, schedule: Q01DX001 (ip), vehicle: saline sonified",97 % of control
same,T/C,"dose: 100.0 mg/kg/injection, schedule: Q01DX001 (ip), vehicle: saline sonified",93 % of control
same,T/C,"dose: 200.0 mg/kg/injection, schedule: Q01DX001 (ip), vehicle: saline sonified",94 % of control
CC(CCC(CCCCC(CCC(C)CC(C)(C)C)CCC(C)CC(C)(C)C)CCC(C)CC(C)(C)C)CC(C)(C)C (stereo not given),T/C,"dose: 75.0 mg/kg/injection, schedule: Q01DX001 (ip), vehicle: saline with Tween-80",103 % of control
same,T/C,"dose: 150.0 mg/kg/injection, schedule: Q01DX001 (ip), vehicle: saline with Tween-80",98 % of control
same,T/C,"dose: 300.0 mg/kg/injection, schedule: Q01DX001 (ip), vehicle: saline with Tween-80",98 % of control
CCOC(=O)/C(N=O)=C(/O)c1ccncc1,T/C,[9],96 % of control
same,T/C,[10],102 % of control
COC(=O)C(NC(=O)COc1ccccc1[N+](=O)[O-])C(=O)OC,T/C,"dose: 100.0 mg/kg/injection, schedule: Q01DX001 (ip), vehicle: saline with Tween-80",100 % of control
same,T/C,"dose: 200.0 mg/kg/injection, schedule: Q01DX001 (ip), vehicle: saline with Tween-80",95 % of control
same,T/C,"dose: 400.0 mg/kg/injection, schedule: Q01DX001 (ip), vehicle: saline with Tween-80",97 % of control
CC(=O)Nc1cc(CN2CCCCC2)c(O)c2ncccc12,T/C,"dose: 75.0 mg/kg/injection, schedule: Q01DX001 (ip), vehicle: other",120 % of control
same,T/C,"dose: 150.0 mg/kg/injection, schedule: Q01DX001 (ip), vehicle: other",105 % of control
same,T/C,"dose: 300.0 mg/kg/injection, schedule: Q01DX001 (ip), vehicle: other",107 % of control
Cc1c(Cl)cccc1NC(=O)NCCc1ccccc1,T/C,[2],94 % of control and 101 % of control
same,T/C,"dose: 100.0 mg/kg/injection, schedule: Q04DX002 (ip), vehicle: saline with Tween-80",100 % of control and 103 % of control
same,T/C,[7],100 % of control
same,T/C,[3],101 % of control and 104 % of control
same,T/C,"dose: 200.0 mg/kg/injection, schedule: Q04DX002 (ip), vehicle: saline with Tween-80",93 % of control and 97 % of control
same,T/C,[8],101 % of control
same,T/C,"dose: 400.0 mg/kg/injection, schedule: Q01DX009 (ip), vehicle: saline with Tween-80",100 % of control and 101 % of control
same,T/C,"dose: 400.0 mg/kg/injection, schedule: Q04DX002 (ip), vehicle: saline with Tween-80",96 % of control and 97 % of control
same,T/C,"dose: 400.0 mg/kg/injection, schedule: Q04DX003 (ip), vehicle: saline with Tween-80",101 % of control
NCC1OC(OC2C(CO)OC(OC3C(O)C(N)CC(N)C3OC3OC(CN)C(O)C(O)C3N)C2O)C(N)C(O)C1O (stereo not given),T/C,"dose: 37.5 mg/kg/injection, schedule: Q01DX001 (ip), vehicle: saline",100 % of control
same,T/C,"dose: 75.0 mg/kg/injection, schedule: Q01DX001 (ip), vehicle: saline",105 % of control
same,T/C,"dose: 150.0 mg/kg/injection, schedule: Q01DX001 (ip), vehicle: saline",111 % of control
COc1ccc(O)c(CC(C)C)c1,T/C,"dose: 100.0 mg/kg/injection, schedule: Q04DX003 (ip), vehicle: acetone",96 % of control
same,T/C,"dose: 200.0 mg/kg/injection, schedule: Q04DX003 (ip), vehicle: acetone",102 % of control
same,T/C,"dose: 400.0 mg/kg/injection, schedule: Q04DX003 (ip), vehicle: acetone",93 % of control
CC(=O)OCCSCCc1ccccc1,T/C,"dose: 62.5 mg/kg/injection, schedule: Q01DX009 (ip), vehicle: saline with Tween-80",97 % of control
same,T/C,"dose: 125.0 mg/kg/injection, schedule: Q01DX009 (ip), vehicle: saline with Tween-80",113 % of control
same,T/C,"dose: 250.0 mg/kg/injection, schedule: Q01DX009 (ip), vehicle: saline with Tween-80",94 % of control
